# Laboratory results as given in patent US8420657B2 (Novartis AG, priority 2008, dated 2013).
# Key:
# [1] = target: T1, GST-JAK2(808-1132) (Homo sapiens, UniProt O60674); assay: JAK2 kinase assay (Caliper mobility shift, LabChip 3000); format: biochemical
# T1 construct: GST-JAK2(808-1132); purchased Invitrogen (Carlsbad, USA) #4288
# In short: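 Eight-point compound series (final 10–0.003 μM) tested on purchased GST-JAK2 kinase domain (808-1132). Peptide FITC-JAK3tide plus ATP reacted 60 min, 30 °C, then quenched with EDTA; turnover from charge-based separation of substrate and product.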
# [2] = test system: JAK1/JAK2-dependent nuclear translocation of STAT1-GFP in HT1080 fibrosarcoma cells; assay: STAT1 nuclear translocation assay (Cellomics), IFN-γ stimulated HT1080 STAT1-GFP cells; format: cell-based; conditions: Homo sapiens, HT-1080, STAT1 translocation pathway
# In short: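 IC50 derived from percent nuclear STAT1-GFP translocation, computed from nuclear minus cytoplasmic GFP intensity against untreated baseline and DMSO-stimulated control. Stable HT1080 STAT1-GFP cells received compound (0.003–10 μM, 0.1% DMSO) 30 min ahead of a 2 h 100 ng/ml IFN-γ stimulus, then fixation and Hoechst nuclear masking.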
# T1 sequence (O60674 808-1132): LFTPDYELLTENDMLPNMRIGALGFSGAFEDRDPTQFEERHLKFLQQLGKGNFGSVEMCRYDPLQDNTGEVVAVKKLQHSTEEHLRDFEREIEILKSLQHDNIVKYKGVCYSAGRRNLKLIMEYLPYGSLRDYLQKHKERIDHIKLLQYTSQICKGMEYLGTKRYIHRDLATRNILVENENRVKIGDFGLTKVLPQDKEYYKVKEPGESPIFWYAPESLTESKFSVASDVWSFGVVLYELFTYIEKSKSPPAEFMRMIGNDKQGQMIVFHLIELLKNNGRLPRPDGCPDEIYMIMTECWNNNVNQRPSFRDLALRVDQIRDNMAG
compound,measurement,setting,value
"CN1CCN(Cc2ccc(Nc3ncc4ccn(-c5ccc(S(C)(=O)=O)c(F)c5)c4n3)cc2)CC1 [Example 244, [7-(3-Fluoro-4-methanesulfonyl-phenyl)-7H-pyrrolo[2,3-d]pyrimidin-2-yl]-[4-(4-methyl-piperazin-1-ylmethyl)-phenyl]-amine]",IC50,[1],< 3 nM
same,IC50,[2],430 nM
"O=C(c1ccc(Nc2ncc3ccn(-c4cc(F)c(CN5CCCC5)c(F)c4)c3n2)cc1)N1CCOCC1 [Example 178, {4-[7-(3,5-Difluoro-4-pyrrolidin-1-ylmethyl-phenyl)-7H-pyrrolo[2,3-d]pyrimidin-2-ylamino]-phenyl}-morpholin-4-yl-methanone]",IC50,[1],9.1 nM
same,IC50,[2],790 nM
"CS(=O)(=O)c1ccc(-n2ccc3cnc(Nc4ccc(OCCN5CCOCC5)cc4)nc32)cc1 [Example 34, [7-(4-Methanesulfonyl-phenyl)-7H-pyrrolo[2,3-d]pyrimidin-2-yl]-[4-(2-morpholin-4-yl-ethoxy)-phenyl]-amine]",IC50,[1],< 3 nM
same,IC50,[2],69.5 nM
"N#Cc1ccc(Nc2ncc3ccn(-c4ccc(C(=O)N5CCOCC5)cc4)c3n2)cc1 [Example 237, 4-{7-[4-(Morpholine-4-carbonyl)-phenyl]-7H-pyrrolo[2,3-d]pyrimidin-2-ylamino}-benzonitrile]",IC50,[1],7 nM
same,IC50,[2],2560 nM
"COCc1ccc(Nc2ncc3ccn(-c4ccc(S(C)(=O)=O)cc4)c3n2)cc1 [Example 54, [7-(4-Methanesulfonyl-phenyl)-7H-pyrrolo[2,3-d]pyrimidin-2-yl]-(4-methoxymethyl-phenyl)-amine]",IC50,[1],4.4 nM
same,IC50,[2],3110 nM
"CN1CCN(C(=O)Cc2ccc(-n3ccc4cnc(Nc5ccc(C(F)(F)F)cc5)nc43)cc2)CC1 [Example 145, 1-(4-Methyl-piperazin-1-yl)-2-{4-[2-(4-trifluoromethyl-phenylamino)-pyrrolo[2,3-d]pyrimidin-7-yl]-phenyl}-ethanone]",IC50,[1],7 nM
same,IC50,[2],365 nM
"COc1ccc(Nc2ncc3ccn(-c4ccc(C(=O)N5CCOCC5)cc4)c3n2)cn1 [Example 234, {4-[2-(6-Methoxy-pyridin-3-ylamino)-pyrrolo[2,3-d]pyrimidin-7-yl]-phenyl}-morpholin-4-yl-methanone]",IC50,[1],8.1 nM
same,IC50,[2],910 nM
"CN(C)CCNC(=O)c1ccc(Nc2ncc3ccn(-c4ccc(S(C)(=O)=O)cc4)c3n2)cc1 [Example 40, N-(2-Dimethylamino-ethyl)-4-[7-(4-methanesulfonyl-phenyl)-7H-pyrrolo[2,3-d]pyrimidin-2-ylamino]-benzamide]",IC50,[1],< 3 nM
same,IC50,[2],155 nM
"CCOc1ccc(Nc2ncc3cc(C)n(-c4ccc(CC(=O)N5CCS(=O)(=O)CC5)c(F)c4)c3n2)cc1OCC [Example 286, 2-{4-[2-(3,4-Diethoxy-phenylamino)-6-methyl-pyrrolo[2,3-d]pyrimidin-7-yl]-2-fluoro-phenyl}-1-(1,1-dioxido-thiomorpholin-4-yl)-ethanone]",IC50,[1],10.6 nM
same,IC50,[2],285 nM
"CS(=O)(=O)c1ccc(-n2ccc3cnc(Nc4ccc(C(=O)N5CCNCC5)cc4)nc32)cc1 [Example 87, {4-[7-(4-Methanesulfonyl-phenyl)-7H-pyrrolo[2,3-d]pyrimidin-2-ylamino]-phenyl}-piperazin-1-yl-methanone]",IC50,[1],3.8 nM
same,IC50,[2],18300 nM
"CC(C)Oc1ccc(Nc2ncc3ccn(-c4ccc(C(=O)N5CCOCC5)cc4)c3n2)cc1 [Example 231, {4-[2-(4-Isopropoxy-phenylamino)-pyrrolo[2,3-d]pyrimidin-7-yl]-phenyl}-morpholin-4-yl-methanone]",IC50,[1],3.2 nM
same,IC50,[2],258 nM
"O=C(c1cncc(Nc2ncc3ccn(-c4cc(F)c(CN5CCOCC5)c(F)c4)c3n2)c1)N1CCOCC1 [Example 248, {5-[7-(3,5-Difluoro-4-morpholin-4-ylmethyl-phenyl)-7H-pyrrolo[2,3-d]pyrimidin-2-ylamino]-pyridin-3-yl}-morpholin-4-yl-methanone]",IC50,[1],24 nM
same,IC50,[2],4270 nM
